Experimental data reported in paper PMC2949447 (The Journal of steroid biochemistry and molecular biology, 2010).

What was measured:
[1] = test system: castrate immature male Sprague-Dawley rats; experiment: sc androgenic assay in castrate immature rats; assay type: in vivo, rat
[2] = test system: castrate immature male Sprague-Dawley rats; experiment: Effect of dutasteride in the sc androgenic assay; assay type: in vivo, rat; conditions: 8 days; for effect of concurrent DUT on androgen-stimulated VP and SV weights: maximal stimulatory sc dose of androgen ± DUT 1.0 mg/day orally
[3] = test system: recombinant human aromatase; conditions: conditions allowing complete conversion of T to estradiol; ref [13]; cited from earlier work
[4] = Serum androgen levels by RIA in androgen ± dutasteride treated rats; conditions: for effect of concurrent DUT on serum level of the administered androgen: androgen sc ± DUT 1.0 mg/day orally, blood 2 h after final dose; for serum DHT levels: n=10
[5] = test system: castrate rats; conditions: single sc injection 1.2 mg/rat, castrate 22 day-old rats; ref [5] and unpublished observations; cited from earlier work
[6] = test system: rat liver or prostate homogenates; conditions: ref Sundaram et al. [1]; cited from earlier work
[7] = target: T1, rat AR ligand binding domain (ARLBD) (Rattus norvegicus, UniProt P15207); experiment: Competitive binding to purified rat AR ligand binding domain; conditions: RBA = IC50 R1881/IC50 test compound X 100; R1881 defined as 100%
T1 sequence (P15207 651-882 limits assumed): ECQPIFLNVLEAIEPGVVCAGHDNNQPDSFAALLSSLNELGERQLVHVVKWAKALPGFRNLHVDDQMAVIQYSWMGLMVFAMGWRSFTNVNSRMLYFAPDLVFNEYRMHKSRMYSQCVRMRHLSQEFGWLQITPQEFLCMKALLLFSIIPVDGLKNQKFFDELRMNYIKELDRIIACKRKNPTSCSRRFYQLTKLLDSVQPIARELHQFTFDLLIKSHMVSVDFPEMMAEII

Compound: C[C@@H]1CC2=CC(=O)CC[C@@H]2[C@@H]2[C@@H]1[C@@H]1CC[C@H](O)[C@@]1(C)C[C@@H]2C [DMA, 7α,11β-dimethyl-19-nortestosterone]
- anabolic activity (stimulation of LA muscle weight), comparison ([1]; sc, Fig. 1b): greater than that of 5α-DHDMA or T
- effect of concurrent DUT on androgen-stimulated VP and SV weights [2]: did not affect VP or SV weights
- aromatization to aromatic A-ring estrogen [3]: not aromatized
- effect of concurrent DUT on serum level of the administered androgen ([4]; 8 days): not significantly different

Compound: C[C@@H]1C[C@H]2CC(=O)CC[C@@H]2[C@@H]2[C@@H]1[C@@H]1CC[C@H](O)[C@@]1(C)C[C@@H]2C [5α-DHDMA, 5α-dihydroDMA]
- androgenic potency as percent of DMA (ventral prostate growth) ([1]; sc 7 days): 30-40%

Compound: C[C@H]1C[C@]2(C)[C@@H](O)CC[C@H]2[C@@H]2CCC3=CC(=O)CC[C@@H]3[C@H]21 [MNT, 11β-methyl-19-nortestosterone]
- effect of concurrent DUT on androgen-stimulated VP and SV weights [2]: did not affect VP or SV weights
- aromatization to aromatic A-ring estrogen [3]: not aromatized
- effect of concurrent DUT on serum level of the administered androgen ([4]; 8 days): higher

Compound: CCCCCCCCCCCCOC(=O)O[C@H]1CC[C@H]2[C@@H]3CCC4=CC(=O)CC[C@@H]4[C@H]3[C@@H](C)C[C@]12C [MNTDC, 11β-methyl-19-nortestosterone 17β-dodecylcarbonate]
- duration VP and SV growth maintained above castrate levels [5]: ~14 weeks

Compound: C[C@@H]1CC2=CC(=O)CC[C@@H]2[C@H]2CC[C@]3(C)[C@@H](O)CC[C@H]3[C@@H]21 [MENT, 7α-methyl-19-nortestosterone]
- effect of concurrent DUT on androgen-stimulated VP and SV weights [2]: comparable
- 5α-reduction [6]: not 5α-reduced
- effect of concurrent DUT on serum level of the administered androgen ([4]; 8 days): significantly decreased

Compound: C[C@]12C=CC(=O)N[C@@H]1CC[C@@H]1[C@@H]2CC[C@]2(C)[C@@H](C(=O)Nc3cc(C(F)(F)F)ccc3C(F)(F)F)CC[C@@H]12 [DUT, 17β-N-2,5-bis-[trifluoromethyl]-phenylcarbamoyl-4-aza-5a-androstan-1-en-3-one]
- toxicity judged by suppression of body weights ([2]; DUT 10 mg/day orally): showed evidence of toxicity
- effect on VP and SV weights in T-treated rats ([2]; DUT 0.1, 1.0 or 10.0 mg/day orally with T 0.23 mg/day sc): significantly decreased
- serum DHT levels ([4]; T 0.23 mg sc + DUT 0.1 mg/rat orally, 8 days): 606 ± 111 pg/mL
- serum DHT levels ([4]; T 0.23 mg sc + DUT 1.0 mg/rat orally, 8 days): 235 ± 36 pg/mL
- serum DHT levels ([4]; T 0.23 mg sc + DUT 10 mg/rat orally, 8 days): 56 ± 4 pg/mL

Compound: C[C@@H]1C[C@H]2CC(=O)CC[C@@H]2[C@H]2CC[C@]3(C)[C@@H](O)CC[C@H]3[C@@H]21 [5α-DHMENT, 5α-dihydroMENT]
- Binding to ARLBD RBA [7]: 26%

Compound: C[C@]12CC[C@H]3[C@@H](CCC4=CC(=O)CC[C@@]43C)[C@@H]1CC[C@@H]2O [T, Testosterone]
- effect of concurrent DUT on androgen-stimulated VP and SV weights [2]: significantly blunted
- effect of concurrent DUT on serum DHT in T-treated rats ([4]; T sc + DUT 1.0 mg/day orally, 8 days): suppressed to levels observed in castrate vehicle-treated rats
- effect of concurrent DUT on serum level of the administered androgen ([4]; 8 days): significantly elevated
- serum DHT levels ([4]; rats treated sc with 0.23 mg T alone for 8 days, 2 h after final dose): 1,247 ± 106 pg/ml

Compound: C[C@]12CCC(=O)C[C@@H]1CC[C@@H]1[C@@H]2CC[C@]2(C)[C@@H](O)CC[C@@H]12 [DHT, 5α-dihydrotestosterone]
- effect of concurrent DUT on androgen-stimulated VP and SV weights [2]: comparable
- effect of concurrent DUT on serum level of the administered androgen ([4]; 8 days): not significantly different

Compound: CCCCCCCCCCC(=O)O[C@H]1CC[C@H]2[C@H]3[C@H]([C@@H](C)C[C@]12C)[C@H]1CCC(=O)C=C1C[C@H]3C [DMAU, dimethandrolone 17β-undecanoate]
- duration VP and SV growth maintained above castrate levels [5]: about 21 weeks
